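Exposure lasted 48 hours, with cells grown in 96-well plates and compounds tested at five concentrations. TGI is the concentration that stops growth completely.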
Columns and labels:
Assay in all cases: NCI anticancer screen, dose series, 48 h
A498 renal = system: A498 renal
SR leukemia = system: SR leukemia
T-47D breast = system: T-47D breast
COLO 205 colon = system: COLO 205 colon
NCI-H226 lung = system: NCI-H226 lung
K-562 leukemia = system: K-562 leukemia
A549 NSCLC = system: A549 NSCLC
MCF7 breast = system: MCF7 breast
NCI-H23 lung = system: NCI-H23 lung
SNB-75 CNS = system: SNB-75 CNS
HOP-62 NSCLC = system: HOP-62 NSCLC
NCI/ADR-RES ovarian = system: NCI/ADR-RES ovarian
CCRF-CEM leukemia = system: CCRF-CEM leukemia
SW-620 colon = system: SW-620 colon
HL-60(TB) leukemia = system: HL-60(TB) leukemia
MDA-MB-231 breast = system: MDA-MB-231 breast
SNB-19 CNS = system: SNB-19 CNS
HOP-92 NSCLC = system: HOP-92 NSCLC
HS 578T breast = system: HS 578T breast
HCT-15 colon = system: HCT-15 colon
HCC-2998 colon = system: HCC-2998 colon
UO-31 renal = system: UO-31 renal
SN12C renal = system: SN12C renal
M14 melanoma = system: M14 melanoma
IGROV1 ovarian = system: IGROV1 ovarian
CAKI-1 renal = system: CAKI-1 renal
LOX IMVI melanoma = system: LOX IMVI melanoma
RPMI-8226 leukemia = system: RPMI-8226 leukemia
SK-MEL-5 melanoma = system: SK-MEL-5 melanoma
SK-MEL-28 melanoma = system: SK-MEL-28 melanoma
UACC-257 melanoma = system: UACC-257 melanoma
HT29 colon = system: HT29 colon
ACHN renal = system: ACHN renal
TK-10 renal = system: TK-10 renal
HCT-116 colon = system: HCT-116 colon
OVCAR-4 ovarian = system: OVCAR-4 ovarian
SK-MEL-2 melanoma = system: SK-MEL-2 melanoma
U251 CNS = system: U251 CNS
MDA-MB-435 = system: MDA-MB-435
NCI-H522 lung = system: NCI-H522 lung
PC-3 prostate = system: PC-3 prostate
OVCAR-3 ovarian = system: OVCAR-3 ovarian
SK-OV-3 ovarian = system: SK-OV-3 ovarian
OVCAR-8 ovarian = system: OVCAR-8 ovarian
NCI-H460 lung = system: NCI-H460 lung
DU-145 prostate = system: DU-145 prostate
MDA-N = system: MDA-N
OVCAR-5 ovarian = system: OVCAR-5 ovarian
SF-295 CNS = system: SF-295 CNS
EKVX NSCLC = system: EKVX NSCLC
KM12 colon = system: KM12 colon
MOLT-4 leukemia = system: MOLT-4 leukemia
786-0 renal = system: 786-0 renal
SF-539 CNS = system: SF-539 CNS

Question: For `COP(=O)(OC)C(Cc1c[nH]c2ccccc12)NC(=O)OCc1ccccc1` (stereo unspecified), which TGI (A498 renal) is on record?
Answer: > 100 µM

Question: And the TGI (SR leukemia)?
Answer: > 100 µM

Question: What about the TGI (T-47D breast) of the same compound?
Answer: > 100 µM

Question: And the TGI (COLO 205 colon)?
Answer: > 100 µM

Question: And the TGI (NCI-H226 lung)?
Answer: > 100 µM

Question: And the TGI (K-562 leukemia)?
Answer: > 100 µM

Question: What about the TGI (A549 NSCLC) of the same compound?
Answer: > 100 µM

Question: And the TGI (MCF7 breast)?
Answer: > 100 µM

Question: And the TGI (NCI-H23 lung)?
Answer: > 100 µM

Question: And the TGI (SNB-75 CNS)?
Answer: > 100 µM

Question: What about the TGI (HOP-62 NSCLC) of the same compound?
Answer: > 100 µM

Question: And the TGI (NCI/ADR-RES ovarian)?
Answer: > 100 µM

Question: And the TGI (CCRF-CEM leukemia)?
Answer: 29.2 µM

Question: And the TGI (SW-620 colon)?
Answer: > 100 µM

Question: And the TGI (HL-60(TB) leukemia)?
Answer: > 100 µM

Question: What about the TGI (MDA-MB-231 breast) of the same compound?
Answer: > 100 µM

Question: What about the TGI (SNB-19 CNS) of the same compound?
Answer: > 100 µM

Question: What about the TGI (HOP-92 NSCLC) of the same compound?
Answer: > 100 µM

Question: What about the TGI (HS 578T breast) of the same compound?
Answer: > 100 µM

Question: And the TGI (HCT-15 colon)?
Answer: > 100 µM

Question: And the TGI (HCC-2998 colon)?
Answer: > 100 µM

Question: What about the TGI (UO-31 renal) of the same compound?
Answer: > 100 µM

Question: What about the TGI (SN12C renal) of the same compound?
Answer: > 100 µM

Question: What about the TGI (M14 melanoma) of the same compound?
Answer: > 100 µM

Question: What about the TGI (IGROV1 ovarian) of the same compound?
Answer: > 100 µM

Question: And the TGI (CAKI-1 renal)?
Answer: > 100 µM

Question: What about the TGI (LOX IMVI melanoma) of the same compound?
Answer: > 100 µM

Question: What about the TGI (RPMI-8226 leukemia) of the same compound?
Answer: > 100 µM

Question: What about the TGI (SK-MEL-5 melanoma) of the same compound?
Answer: > 100 µM

Question: And the TGI (SK-MEL-28 melanoma)?
Answer: > 100 µM

Question: And the TGI (UACC-257 melanoma)?
Answer: > 100 µM

Question: And the TGI (HT29 colon)?
Answer: > 100 µM

Question: What about the TGI (ACHN renal) of the same compound?
Answer: > 100 µM

Question: What about the TGI (TK-10 renal) of the same compound?
Answer: > 100 µM

Question: And the TGI (HCT-116 colon)?
Answer: > 100 µM

Question: What about the TGI (OVCAR-4 ovarian) of the same compound?
Answer: > 100 µM

Question: And the TGI (SK-MEL-2 melanoma)?
Answer: > 100 µM

Question: And the TGI (U251 CNS)?
Answer: > 100 µM

Question: What about the TGI (MDA-MB-435) of the same compound?
Answer: > 100 µM

Question: What about the TGI (NCI-H522 lung) of the same compound?
Answer: > 100 µM

Question: And the TGI (PC-3 prostate)?
Answer: > 100 µM

Question: What about the TGI (OVCAR-3 ovarian) of the same compound?
Answer: > 100 µM

Question: What about the TGI (SK-OV-3 ovarian) of the same compound?
Answer: > 100 µM

Question: And the TGI (OVCAR-8 ovarian)?
Answer: > 100 µM

Question: And the TGI (NCI-H460 lung)?
Answer: > 100 µM

Question: What about the TGI (DU-145 prostate) of the same compound?
Answer: > 100 µM

Question: And the TGI (MDA-N)?
Answer: > 100 µM

Question: What about the TGI (OVCAR-5 ovarian) of the same compound?
Answer: > 100 µM

Question: And the TGI (SF-295 CNS)?
Answer: > 100 µM

Question: What does the source list for `Oc1[nH]c2ccccc2c1N=Nc1nc(-c2ccc(Cl)c(Cl)c2)cs1`?
Answer: TGI (T-47D breast): > 100 µM; TGI (COLO 205 colon): > 100 µM; TGI (NCI-H226 lung): > 100 µM; TGI (A549 NSCLC): > 100 µM; TGI (MCF7 breast): > 100 µM; TGI (NCI-H23 lung): > 100 µM; TGI (SNB-75 CNS): > 100 µM; TGI (HOP-62 NSCLC): > 100 µM; TGI (NCI/ADR-RES ovarian): > 100 µM; TGI (SW-620 colon): > 100 µM; TGI (HL-60(TB) leukemia): 0.718 µM; TGI (MDA-MB-231 breast): > 100 µM; TGI (SNB-19 CNS): > 100 µM; TGI (HOP-92 NSCLC): > 100 µM; TGI (HCT-15 colon): > 100 µM; TGI (HCC-2998 colon): > 100 µM; TGI (UO-31 renal): > 100 µM; TGI (SN12C renal): > 100 µM; TGI (M14 melanoma): > 100 µM; TGI (IGROV1 ovarian): > 100 µM; TGI (CAKI-1 renal): > 100 µM; TGI (LOX IMVI melanoma): > 100 µM; TGI (EKVX NSCLC): > 100 µM; TGI (KM12 colon): > 100 µM; TGI (SK-MEL-5 melanoma): > 100 µM; TGI (MOLT-4 leukemia): > 100 µM; TGI (SK-MEL-28 melanoma): > 100 µM; TGI (UACC-257 melanoma): > 100 µM; TGI (HT29 colon): > 100 µM; TGI (ACHN renal): > 100 µM; TGI (786-0 renal): > 100 µM; TGI (TK-10 renal): > 100 µM; TGI (HCT-116 colon): > 100 µM; TGI (OVCAR-4 ovarian): > 100 µM; TGI (SK-MEL-2 melanoma): > 100 µM; TGI (U251 CNS): > 100 µM; TGI (MDA-MB-435): > 100 µM; TGI (PC-3 prostate): > 100 µM; TGI (OVCAR-3 ovarian): > 100 µM; TGI (SK-OV-3 ovarian): > 100 µM; TGI (OVCAR-8 ovarian): > 100 µM; TGI (NCI-H460 lung): > 100 µM; TGI (DU-145 prostate): > 100 µM; TGI (MDA-N): > 100 µM; TGI (OVCAR-5 ovarian): > 100 µM; TGI (SF-295 CNS): > 100 µM; TGI (SF-539 CNS): > 100 µM

Reference: PubChem BioAssay (NCI)
